In paper PMC6022709 (BMC Research Notes, 2018):
In brackets after ≈: the same amount, converted by molar mass. Read-outs that look alike come from different tables or passages of the source.

Test system: M. tuberculosis resistant isolates
Assay type: cell-based, Mycobacterium tuberculosis
Conditions: solid medium 7H10 with 10% v/v OADC, 3–4 weeks

SMILES: CC(C)CC1C(=O)N2NCCCC2C(=O)N2NCCCC2C(=O)N(C)C(Cc2ccccc2)C(=O)N2CCCC2C(=O)NC(C(C)C)C(=O)N1O (stereo not drawn) [Compound 3]
- MIC99 (strain LP-0458686-RM1): 3.1 µM (≈ 2.2 µg/mL)
- MIC99 (strain LP-0458686-RM2): 3.1 µM (≈ 2.2 µg/mL)
- MIC99 (strain LP-0458686-RM3): 3.1 µM (≈ 2.2 µg/mL)

SMILES: CC(C)CC1C(=O)N2NCCCC2C(=O)N2NCCCC2C(=O)N(C)C(Cc2ccccc2)C(=O)N2CCCC2C(=O)NC(Cc2ccccc2)C(=O)N1O (stereo not drawn) [Compound 1, cyclo[N-(Me)Phe-Pro-Phe-N-(OH)Leu-Piz-Piz]]
- MIC99 (strain LP-0458690-RM1): 13 µM (≈ 9.87 µg/mL)
- MIC99 (strain LP-0458690-RM2): 25 µM (≈ 19 µg/mL)
- MIC99 (strain LP-0458690-RM3): 25 µM (≈ 19 µg/mL)
- MIC99 (strain LP-0458690-RM4): 25 µM (≈ 19 µg/mL)
- MIC99 (strain LP-0458690-RM5): 25 µM (≈ 19 µg/mL)
- MIC99 (strain LP-0458690-RM6): 25 µM (≈ 19 µg/mL)
